Article PMC10096449, “Anti-SARS-CoV-2 Activity and Cytotoxicity of Amaryllidaceae Alkaloids from Hymenocallis littoralis” (Molecules, 2023)
Like-named read-outs stand apart in the source and are kept apart here.

What was measured:
[1] = test system: Vero-E6 cells; conditions: for CC50: single experiment (duplicate experiments listed)
[2] = test system: SARS-CoV-2; test: microbe, parasite or virus in culture; type: cell-based, SARS-CoV-2 isolate BetaCov/Belgium/GHB-03021/2020; conditions: for EC50: read-out: EC50 (anti-SARS-CoV-2 activity); for IC50: Severe acute respiratory syndrome coronavirus 2
[3] = in vitro; conditions: African green monkey
[4] = test system: SARS-CoV-2; set-up: method as in Zhang et al. [31]; conditions: RT-PCR read-out after 18–24 h; ref Zhang et al. [31]; read-out: EC50 (anti-SARS-CoV-2 activity); cited from earlier work
[5] = set-up: method as in Zhang et al. [31]; conditions: ref Zhang et al. [31]; cited from earlier work
[6] = test system: HEK293T; set-up: method as in Ren et al. [33]; conditions: ref Ren et al. [33]; cited from earlier work
[7] = test system: Huh-7; set-up: method as in Ren et al. [33]; conditions: ref Ren et al. [33]; cited from earlier work
[8] = test system: SARS-CoV-2; set-up: method as in Jin et al. [32]; conditions: in Vero cells; ref Jin et al. [32]; read-out: EC50 (anti-SARS-CoV-2 activity); cited from earlier work
[9] = test system: SARS-CoV-2; set-up: method as in Ren et al. [33]; conditions: in the Vero-E6 cell; ref Ren et al. [33]; read-out: EC50 (anti-SARS-CoV-2 activity); cited from earlier work
[10] = test system: HEK293; set-up: method as in Jin et al. [32]; conditions: on HEK293; ref Jin et al. [32]; cited from earlier work
[11] = test system: Vero-E6; set-up: method as in Ren et al. [33]; conditions: ref Ren et al. [33]; cited from earlier work
[12] = CC50 (cytotoxicity on Vero-E6 cells), MTS-assay, absence of virus
[13] = CC50 (µM), single experiment (duplicate experiments listed), Vero-E6 cells
[14] = av. CC50 (µM), average of two experiments, Vero-E6 cells
[15] = Severe acute respiratory syndrome coronavirus 2, 96 h

SMILES | antiviral activity against SARS-CoV-2 (in words) [2] | CC50 [3, 12] [µM] | CC50 [3, 13] [µM] | CC50 [3, 14] [µM] | EC50 [2, 15] [µM] | IC50 ([2]; read-out: IC50) [µM] | IC50 ([2]; read-out: av. IC50) [µM] | further results
COc1cc2c(cc1O)[C@@H]1[C@H](O)[C@H](O)C=C3CCN(C2)[C@H]31 [Compound 2, (−)-2-epi-pseudolycorine] | lacked antiviral activity | – | – | – | – | – | – | cytotoxicity on Vero-E6 cells (in words) [1]: lacked antiviral activity, as well as cytotoxicity
COc1cc2c(cc1O)[C@@H](OC)O[C@@H]1CC=C3CCN(C)[C@H]3[C@H]21 [Compound 11, 9-O-demethyl-7-O-methyllycorenine] | – | > 100 | > 100 | > 100 | 40 to 77 | 99.4 | 77.2 | –
O=C1N[C@H]2[C@H](O)[C@H](O)[C@@H](O)[C@H](O)[C@@H]2c2cc3c(c(O)c21)OCO3 [Compound 10, pancratistatin] | lacked selective antiviral activity | 0.13 | 0.14 | – | – | > 100 | > 100 | CC50 [1]: 122 nM
[O-]c1cc2c3c(c1)c1cc4c(cc1c[n+]3CC2)OCO4 [Compound 9, ungeremine] | lacked antiviral activity | > 100 | > 100 | > 100 | > 100 | > 100 | > 100 | cytotoxicity on Vero-E6 cells (in words) [1]: lacked antiviral activity, as well as cytotoxicity; cytotoxicity on Vero-E6 cells (in words) ([1]; listed as ungeremine): eliminated cytotoxicity on the Vero-E6 cell line; antiviral activity against SARS-CoV-2 (in words) ([2]; listed as ungeremine): did not improve its anti-SARS-CoV-2 potency
COc1cc2c(c(O)c1OC)[C@]13CC[C@H](OC)C[C@H]1N(CC3)[C@H]2O [Compound 5, 6β-hydroxyhippeastidine] | – | > 100 | – | – | 44 | – | – | –
Oc1ccc2c3c1OC1CC(O)CCC31CCNC2 (stereo not drawn) [Compound 1, O-demethyl-norlycoramine] | – | > 100 | > 100 | > 100 | 45 | 54 | 45.8 | –
COc1cc2c(c(O)c1OC)[C@]13CC[C@H](OC)C[C@H]1N(CC3)[C@@H]2O [Compound 4, 6α-hydroxyhippeastidine] | – | > 100 | – | – | 44 | – | – | –
COc1cc2c(cc1O)[C@@H]1[C@H](O)[C@H](O)C=C3CCN(C2)[C@H]31 (racemic) [Compounds 2 and 3, (±)-2-epi-pseudolycorine] | loss of the antiviral activity | > 100 | > 100 | > 100 | > 100 | > 100 | > 100 | –
O[C@H]1[C@H]2c3cc4c(cc3CN3CCC(=C[C@H]1O)[C@H]23)OCO4 [Compound 7, 2-epi-lycorine] | – | > 100 | > 100 | > 100 | 54 | 69.3 | 54.2 | –
COc1cc2c(cc1O)C1C(O)C(O)C=C3CCN(C2)C31 (single isomer, unassigned; (+)) [Compound 3, (+)-2-epi-pseudolycorine] | lacked antiviral activity | – | – | – | – | – | – | cytotoxicity on Vero-E6 cells (in words) [1]: lacked antiviral activity, as well as cytotoxicity
O[C@H]1[C@H]2c3cc4c(cc3CN3CCC(=C[C@@H]1O)[C@H]23)OCO4 [Compound 6, lycorine] | lacked selective antiviral activity | 1.2 | 1.28 | 1.21 | > 100 | > 100 | > 100 | EC50 [4]: 180 nM; CC50 [5]: > 40 µM; CC50 [6]: 1040 ± 73.4 nM; CC50 [7]: 834 ± 63 nM; CC50 [1]: 1140 nM; EC50 [8]: 878 ± 22 nM; EC50 [9]: 439 ± 122 nM; CC50 [10]: > 10 µM; CC50 [11]: > 1 mM
O[C@H]1[C@H]2c3cc4c(cc3CN3CCC(C[C@H]1O)[C@H]23)OCO4 (stereo partly drawn) [Compound 8, zephyranthine] | – | > 100 | > 100 | > 100 | 40 to 77 | 37.1 | 39.6 | EC50 [2]: 39 µM
